Results from patent publication US20220387630A1, “METHOD FOR SCREENING ANTICANCER AGENT AND COMBINATION DRUG OF KINASE INHIBITORS FOR TREATMENT OF PANCREATIC CANCER” (National University Corporation Hokkaido University, priority 2020, published 2022).

Legend:
[1] = test system: 4-hit flies (non-GFP); assay: Efficacy of kinase inhibitors on 4-hit fly survival rate (drug food); assay type: in vivo, Drosophila; details: used alone; 1 M Trametinib in food; reared at 25° C. for 13 days
Method: Trametinib (MEK inhibitor), Adavosertib (referred also to as MK-1775, WEE1 inhibitor), AD80 (FRK inhibitor), Y-27632 (ROCK inhibitor), Alisertib (AURKA inhibitor, the above all purchased from MedChem Express), BI-831266 (AURKB inhibitor, obtained from Boehringer Ingelheim) was each dissolved in DMSO (SIGMA) and stored at −20° C.
Agar (Wako), brewers' yeast (MP Bio), yeast extract (Sigma Aldrich), bacto casitone (BD), sucrose (Wako), glucose (Wako), MgCl2 (Wako) CaCl2 (Wako), Propionic acid (Wako), and Mold inhibitor (10% Methyl-4-hydroxy Benzoate in 95% Ethanol; Wako) were dissolved in ultrapure water to prepare a standard food. While kept at 50° C., the kinase inhibitor (Trametinib alone or a combination of Trametinib and another kinase inhibitor) dissolved in DMSO was added for mixing. The resulting solution was cooled to obtain a drug food. The final concentrations of the compounds in the food were […] for Trametinib, 100 μM for Adavosertib, 50 μM for AD80, 10 μM for Y-27632, and 100 μM for BI-831266.
The UAS-Ras^G12D, UAS-p53^shRNA, UAS-CycE, UAS-Med^shRNA fly produced in Example 1 was mated with a Ser-gal4 fly (Bloomington Drosophila Stock Center). […] The eggs were reared at 25° C. for 13 days, and survival rate of 4-hit flies (non-GFP) reared on each food was calculated by dividing the number of eclosed pupae by the total number of pupae.

[2] = test system: MIA PaCa-2 cells; assay: MTS cell viability assay in human pancreatic cancer cells; assay type: cell-based; details: in combination with Trametinib, 72 hours
Method: Example 4 Evaluation of efficacy of kinase inhibitor with use of human pancreatic cancer cells Human pancreatic cancer cell line (MIA PaCa-2) was purchased from National Institute of RIKEN BioResource Research Center, and cultured in Dulbecco's Modified Eagle's Medium (Nacalai tesque) supplemented with 10% fetal bovine serum (Gibco) and 1% penicillin-streptomycin (Nacalai tesque) at 37° C. in the presence of 5% CO2.
Trametinib (DMSO only, 1 μM, 300 μM), Adavosertib (300 μM, 1 mM), AD80 (30 μM, 3 mM), Alisertib (30 μM, 1 mM) and BI-831266 (3 μM, 3 mM) was each prepared and diluted to 100-fold in the medium to produce a drug solution.
MIA PaCa-2 cells were seeded into a 96-well plate at 1000 cells/well (in 100 μL medium). After culturing for one day, 10 μL of the drug solution of Trametinib alone or Trametinib combined with another kinase inhibitor was added to the cells in each well on the 96-well plate (0.2% final concentration of DMSO). Each combination was tested in five wells. After the addition of the drug solution, the cells were cultured at 37° C. for 72 hours in the presence of 5% CO2, and then the cell viability was measured using MTS assay (CellTiter 96 (registered trademark), Promega). The viability is expressed as a ratio to that of a control (solvent only).

| SMILES | increase of survival rate of 4-hit flies (non-GFP) [1] [%] | cell viability compared to that of Trametinib used alone [2] |
| --- | --- | --- |
| CC(=O)Nc1cccc(-n2c(=O)n(C3CC3)c(=O)c3c(Nc4ccc(I)cc4F)n(C)c(=O)c(C)c32)c1 [Trametinib] | 20 |  |
| CC(C)n1nc(-c2ccc(NC(=O)Nc3cc(C(F)(F)F)ccc3F)cc2)c2c(N)ncnc21 [AD80] |  | greatly reduced the cell viability |
| COc1cc(Nc2ncc3c(n2)-c2ccc(Cl)cc2C(c2c(F)cccc2OC)=NC3)ccc1C(=O)O [Alisertib] |  | greatly reduced the cell viability |
| C=CCn1c(=O)c2cnc(Nc3ccc(N4CCN(C)CC4)cc3)nc2n1-c1cccc(C(C)(C)O)n1 [Adavosertib] |  | greatly reduced the cell viability |
